Measured values taken from patent publication US20210017295A1, “BISPECIFIC BINDING AGENTS AND USES THEREOF” (MEMORIAL SLOAN KETTERING CANCER CENTER, priority 2018, published 2021).
Read-outs that look alike come from different tables or passages of the source.

Test system: s.c. HER2(+) BT-474 tumors
Type: in vivo, mouse
[1] = PRIT, CA 28% w/w 70 μg, 24 h p.i., mean ± SD
[2] = no PRIT, only ~16.8 MBq (90 pmol), 24 h p.i., mean ± SEM
[3] = optimized PRIT, 1.0 h p.i., mean ± SEM
[4] = optimized PRIT, 24 h p.i., mean ± SEM
[5] = optimized PRIT, 96 h p.i., mean ± SEM
[6] = optimized PRIT, 336 h p.i., mean ± SEM
[7] = optimized PRIT, […] p.i., mean ± SEM

## Nc1ccc(CC2CN(CC(=O)[O-])CCN(CC(=O)[O-])CCN(CC(=O)[O-])CCN2CC(=O)[O-])cc1.[177Lu+3] (centres unmarked) [^177Lu-DOTA-Bn]
[1]
  ^177Lu activity in Kidneys: 0.75 ± 0.08 % IA/g
  ^177Lu activity in Large Int.: 0.19 ± 0.04 % IA/g
  ^177Lu activity in Liver: 0.33 ± 0.02 % IA/g
  ^177Lu activity in Lungs: 0.25 ± 0.05 % IA/g
  ^177Lu activity in Muscle: 0.08 ± 0.02 % IA/g
  ^177Lu activity in Small Int.: 0.07 ± 0.01 % IA/g
  ^177Lu activity in Spleen: 0.73 ± 0.18 % IA/g
  ^177Lu activity in Stomach: 0.05 ± 0.02 % IA/g
  ^177Lu activity in Tumor: 6.98 ± 3.15 % IA/g
[2]
  ^177Lu activity in Blood: 0.002±0.00 % IA/g
  ^177Lu activity in Kidneys: 0.38±0.01 % IA/g
  ^177Lu activity in Liver: 0.04 ± 0.01 % IA/g
  ^177Lu activity in Spleen: 0.02 ± 0.00 % IA/g
  ^177Lu activity in Tumor: 0.07±0.01 % IA/g
Optimized PRIT, 1-24 h p.i.
  ^177Lu activity in tumor, range: 5-8 % IA/g
[3]
  Tumor-to-tissue ratio, Blood: 10.7 ± 1.3
  Tumor-to-tissue ratio, Bone: 37.3 ± 6.0
  Tumor-to-tissue ratio, Heart: 38.7 ± 6.7
  Tumor-to-tissue ratio, Kidneys: 5.7 ± 0.5
  Tumor-to-tissue ratio, Large Int.: 3.0 ± 0.5
  Tumor-to-tissue ratio, Liver: 8.7 ± 0.9
  Tumor-to-tissue ratio, Lungs: 16.6 ± 2.3
  Tumor-to-tissue ratio, Muscle: 35.7 ± 3.6
  Tumor-to-tissue ratio, Small Int.: 6.0 ± 1.5
  Tumor-to-tissue ratio, Spleen: 44.9 ± 6.3
  Tumor-to-tissue ratio, Stomach: 17.8 ± 4.6
  ^177Lu activity in Blood: 0.62 ± 0.06 % IA/g
  ^177Lu activity in Bone: 0.18 ± 0.03 % IA/g
  ^177Lu activity in Heart: 0.17 ± 0.03 % IA/g
  ^177Lu activity in Kidneys: 1.17 ± 0.02 % IA/g
  ^177Lu activity in Large Int.: 2.22 ± 0.37 % IA/g
  ^177Lu activity in Liver: 0.76 ± 0.06 % IA/g
  ^177Lu activity in Lungs: 0.40 ± 0.05 % IA/g
  ^177Lu activity in Muscle: 0.19 ± 0.01 % IA/g
  ^177Lu activity in Small Int.: 1.11 ± 0.27 % IA/g
  ^177Lu activity in Spleen: 0.15 ± 0.02 % IA/g
  ^177Lu activity in Stomach: 0.37 ± 0.09 % IA/g
  ^177Lu activity in Tumor: 6.65 ± 0.46 % IA/g
[4]
  Tumor-to-tissue ratio, Blood: 26.7±9.0
  Tumor-to-tissue ratio, Bone: 189.6 ± 46.7
  Tumor-to-tissue ratio, Heart: 105.3 ± 27.7
  Tumor-to-tissue ratio, Kidneys: 10.4±1.3
  Tumor-to-tissue ratio, Large Int.: 41.7 ± 5.4
  Tumor-to-tissue ratio, Liver: 28.3 ± 8.3
  Tumor-to-tissue ratio, Lungs: 38.7 ± 10.0
  Tumor-to-tissue ratio, Muscle: 118.5 ± 26.8
  Tumor-to-tissue ratio, Small Int.: 140.4 ± 22.8
  Tumor-to-tissue ratio, Spleen: 12.6 ± 4.5
  Tumor-to-tissue ratio, Stomach: 122.3 ± 17.1
[5]
  Tumor-to-tissue ratio, Blood: 63.6 ± 12.2
  Tumor-to-tissue ratio, Bone: 6.0 ± 1.7
  Tumor-to-tissue ratio, Heart: 42.4 ± 10.3
  Tumor-to-tissue ratio, Kidneys: 8.4 ± 1.7
  Tumor-to-tissue ratio, Large Int.: 31.8 ± 8.6
  Tumor-to-tissue ratio, Liver: 10.1 ± 2.6
  Tumor-to-tissue ratio, Lungs: 34.7 ± 8.8
  Tumor-to-tissue ratio, Muscle: 22.5 ± 8.7
  Tumor-to-tissue ratio, Small Int.: 44.0 ± 12.6
  Tumor-to-tissue ratio, Spleen: 12.9 ± 2.9
  Tumor-to-tissue ratio, Stomach: 57.3 ± 13.7
  ^177Lu activity in Blood: 0.04 ± 0.00 % IA/g
  ^177Lu activity in Bone: 0.38 ± 0.09 % IA/g
  ^177Lu activity in Heart: 0.05 ± 0.01 % IA/g
  ^177Lu activity in Kidneys: 0.27 ± 0.03 % IA/g
  ^177Lu activity in Large Int.: 0.07 ± 0.01 % IA/g
  ^177Lu activity in Liver: 0.23 ± 0.04 % IA/g
  ^177Lu activity in Lungs: 0.07 ± 0.01 % IA/g
  ^177Lu activity in Muscle: 0.10 ± 0.03 % IA/g
  ^177Lu activity in Small Int.: 0.05 ± 0.01 % IA/g
  ^177Lu activity in Spleen: 0.18 ± 0.02 % IA/g
  ^177Lu activity in Stomach: 0.04 ± 0.01 % IA/g
  ^177Lu activity in Tumor: 2.29±0.41 % IA/g
[6]
  Tumor-to-tissue ratio, Blood: 160.8 ± 30.3
  Tumor-to-tissue ratio, Bone: 10.0 ± 3.6
  Tumor-to-tissue ratio, Heart: 37.8 ± 7.7
  Tumor-to-tissue ratio, Kidneys: 3.8 ± 0.9
  Tumor-to-tissue ratio, Large Int.: 75.6 ± 26.4
  Tumor-to-tissue ratio, Liver: 3.7 ± 1.0
  Tumor-to-tissue ratio, Lungs: 29.2 ± 8.2
  Tumor-to-tissue ratio, Muscle: 64.3 ± 18.4
  Tumor-to-tissue ratio, Small Int.: 116.9 ± 30.0
  Tumor-to-tissue ratio, Spleen: 3.5 ± 0.9
  Tumor-to-tissue ratio, Stomach: 51.4 ± 12.4
  ^177Lu activity in Blood: 0.002 ± 0.00 % IA/g
  ^177Lu activity in Bone: 0.03 ± 0.01 % IA/g
  ^177Lu activity in Heart: 0.01 ± 0.00 % IA/g
  ^177Lu activity in Kidneys: 0.08 ± 0.01 % IA/g
  ^177Lu activity in Large Int.: 0.004 ± 0.00 % IA/g
  ^177Lu activity in Liver: 0.09 ± 0.02 % IA/g
  ^177Lu activity in Lungs: 0.01 ± 0.00 % IA/g
  ^177Lu activity in Muscle: 0.01 ± 0.00 % IA/g
  ^177Lu activity in Small Int.: 0.003 ± 0.00 % IA/g
  ^177Lu activity in Spleen: 0.09 ± 0.02 % IA/g
  ^177Lu activity in Stomach: 0.01 ± 0.00 % IA/g
  ^177Lu activity in Tumor: 0.32±0.06 % IA/g
Optimized PRIT, R^2=0.894
  approximate tumor clearance half-life: ~38.6 h
[7]
  Tumor-to-tissue ratio, Blood: 12.1 ± 1.5
  Tumor-to-tissue ratio, Bone: 37.5 ± 4.3
  Tumor-to-tissue ratio, Heart: 37.5 ± 5.2
  Tumor-to-tissue ratio, Kidneys: 5.2 ± 0.5
  Tumor-to-tissue ratio, Large Int.: 1.6 ± 0.3
  Tumor-to-tissue ratio, Liver: 12.6 ± 1.6
  Tumor-to-tissue ratio, Lungs: 13.5 ± 1.6
  Tumor-to-tissue ratio, Muscle: 25.8 ± 5.1
  Tumor-to-tissue ratio, Small Int.: 10.6 ± 3.7
  Tumor-to-tissue ratio, Spleen: 14.9 ± 1.8
  Tumor-to-tissue ratio, Stomach: 23.6 ± 7.7
  ^177Lu activity in Blood: 0.41 ± 0.04 % IA/g
  ^177Lu activity in Bone: 0.13 ± 0.01 % IA/g
  ^177Lu activity in Heart: 0.13 ± 0.02 % IA/g
  ^177Lu activity in Kidneys: 0.95 ± 0.05 % IA/g
  ^177Lu activity in Large Int.: 3.18 ± 0.52 % IA/g
  ^177Lu activity in Liver: 0.39 ± 0.04 % IA/g
  ^177Lu activity in Lungs: 0.37 ± 0.03 % IA/g
  ^177Lu activity in Muscle: 0.19 ± 0.04 % IA/g
  ^177Lu activity in Small Int.: 0.47 ± 0.16 % IA/g
  ^177Lu activity in Spleen: 0.33 ± 0.03 % IA/g
  ^177Lu activity in Stomach: 0.21 ± 0.07 % IA/g
  ^177Lu activity in Tumor: 4.95 ± 0.34 % IA/g
